Source: paper PMC5064235, “Structure-Based Design of Novel Tetrahydro-Beta-Carboline Derivatives with a Hydrophilic Side Chain as Potential Phosphodiesterase Inhibitors” (Scientia Pharmaceutica, 2015)

Columns and labels:
[1] = biological target: phosphodiesterase-5 (PDE5); conditions: previously reported tadalafil analogues, introduction; cited from earlier work
recombinant human PDE5 = biological target: T1, recombinant human PDE5 (Homo sapiens, UniProt O76074); experiment: In vitro PDE5 inhibitory activity (IMAP FP phosphodiesterase assay); format: biochemical; conditions: purified PDE5, 50 nM TAMRA-cGMP, 1.5 h at 30 °C; 10 concentrations, at least two replicates; read-out: PDE5 Inhibition IC50
T1 construct: purchased BPS Biosciences, San Diego, CA, USA
Method: Phosphodiesterase Assay: 5 U/mL of purified PDE5 (BPS Biosciences, San Diego, CA, USA) was added to the wells of black 96-well non-binding plates. Immediately, the protein was treated with the compound or vehicle control and 50 nM TAMRA-cGMP and 50 nM Fluourescein-cAMP (Molecular Devices, Sunnyvale, CA, USA) were added to each assay well. The plates were incubated for 1.5 h at 30 °C. After incubation, the IMAP FP Phosphodiesterase Evaluation Assay (Molecular Devices, Sunnyvale, CA, USA) binding reagent was added to each well and the plates were incubated for an additional 30 min at 30 °C. FP was measured according to manufacturer’s specifications using a Biotech Synergy 4 plate reader. PDE activity was expressed by an IC50 value (50% inhibitory concentration). Data analysis was done through dose-response analysis, which was repeated at least twice to confirm the reproducibility of the IC50 values.
All the synthesized final THβC compounds were tested for their ability to inhibit recombinant human PDE5. Most of the compounds were evaluated in two steps. The first step was the determination of the percentage inhibition at a screening dose of 10 μM performed in triplicate. For compounds displaying a percentage of inhibition >50%, the IC50 was then determined by testing a range of 10 concentrations with at least two replicates per concentration (Table 2).

SMILES | IC50 [1] | IC50 (recombinant human PDE5) | melting point
CCN1CC(=O)N2[C@H](c3ccc(Cl)cc3)c3[nH]c4ccccc4c3C[C@@H]2C1=O [Compound 2] | 0.003 µM |  | 
NCCN1CC(=O)N2[C@@H](c3ccc(Cl)cc3)c3[nH]c4ccccc4c3C[C@@H]2C1=O [Compound 6f, (6S,12aR)-2-(2-Amino-ethyl)-6-(4-chloro-phenyl)-2,3,6,7,12,12a-hexahydro-pyrazino[1’,2’:1,6]pyrido[3,4-b]indole-1,4-dione] |  | > 10 µM | 200 to 204 °C
NCCN1CC(=O)N2[C@H](c3ccc(Cl)cc3)c3[nH]c4ccccc4c3C[C@H]2C1=O [Compound 6n, (6R,12aS)-2-(2-Amino-ethyl)-6-(4-chloro-phenyl)-2,3,6,7,12,12a-hexahydro-pyrazino[1’,2’:1,6]pyrido[3,4-b]indole-1,4-dione] |  | > 10 µM | 200 to 204 °C
O=C1[C@H]2Cc3c([nH]c4ccccc34)[C@@H](c3ccc(Cl)cc3)N2C(=O)CN1CCCCO [Compound 6c, (6R,12aR)-6-(4-Chloro-phenyl)-2-(4-hydroxy-butyl)-2,3,6,7,12,12a-hexahydropyrazino[1’,2’:1,6]pyrido[3,4-b]indole-1,4-dione] |  | 0.12 µM | 228 to 230 °C
O=C1[C@H]2Cc3c([nH]c4ccccc34)[C@H](c3ccc(Cl)cc3)N2C(=O)CN1CCCCO [Compound 6g, (6S,12aR)-6-(4-Chloro-phenyl)-2-(4-hydroxy-butyl)-2,3,6,7,12,12a-hexahydropyrazino[1’,2’:1,6]pyrido[3,4-b]indole-1,4-dione] |  | > 10 µM | 200 to 203 °C
CCN1CC(=O)N2[C@H](c3ccc(Br)cc3)c3[nH]c4ccccc4c3C[C@@H]2C1=O [Compound 3] | 0.003 µM |  | 
O=C1[C@@H]2Cc3c([nH]c4ccccc34)[C@@H](c3ccc(Cl)cc3)N2C(=O)CN1CCO [Compound 6m, (6R,12aS)-6-(4-Chloro-phenyl)-2-(2-hydroxy-ethyl)-2,3,6,7,12,12a-hexahydro-pyrazino[1’,2’:1,6]pyrido[3,4-b]indole-1,4-dione] |  | > 10 µM | 202 to 206 °C
NCCN1CC(=O)N2[C@H](c3ccc(Cl)cc3)c3[nH]c4ccccc4c3C[C@@H]2C1=O [Compound 6b, (6R,12aR)-2-(2-Amino-ethyl)-6-(4-chloro-phenyl)-2,3,6,7,12,12a-hexahydro-pyrazino[1’,2’:1,6]pyrido[3,4-b]indole-1,4-dione] |  | 3.6 µM | 231 to 234 °C
NCCN1CC(=O)N2[C@@H](c3ccc(Cl)cc3)c3[nH]c4ccccc4c3C[C@H]2C1=O [Compound 6j, (6S,12aS)-2-(2-Amino-ethyl)-6-(4-chloro-phenyl)-2,3,6,7,12,12a-hexahydro-pyrazino[1’,2’:1,6]pyrido[3,4-b]indole-1,4-dione] |  | > 10 µM | 231 to 233 °C
NCCCCN1CC(=O)N2[C@@H](c3ccc(Cl)cc3)c3[nH]c4ccccc4c3C[C@@H]2C1=O [Compound 6h, (6S,12R)-2-(4-Amino-butyl)-6-(4-chloro-phenyl)-2,3,6,7,12,12a-hexahydro-pyrazino[1’,2’:1,6]pyrido[3,4-b]indole-1,4-dione] |  | 3.1 µM | 200 to 202 °C
O=C1[C@H]2Cc3c([nH]c4ccccc34)[C@H](c3ccc(Cl)cc3)N2C(=O)CN1CCO [Compound 6e, (6S,12aR)-6-(4-Chloro-phenyl)-2-(2-hydroxy-ethyl)-2,3,6,7,12,12a-hexahydro-pyrazino[1’,2’:1,6]pyrido[3,4-b]indole-1,4-dione] |  | 4.7 µM | 202 to 206 °C
O=C1[C@@H]2Cc3c([nH]c4ccccc34)[C@H](c3ccc(Cl)cc3)N2C(=O)CN1CCCCO [Compound 6k, (6S,12aS)-6-(4-Chloro-phenyl)-2-(4-hydroxy-butyl)-2,3,6,7,12,12a-hexahydropyrazino[1’,2’:1,6]pyrido[3,4-b]indole-1,4-dione] |  | 2.31 µM | 227 to 229 °C
